Results taken from US20100120858A1, “Piperidine Derivatives” (Pfizer Inc., priority 2006, published 2010).
Where a name gives a salt, the structure may show the parent alone.

Experiments:
[1] = target: human serotonin transporter (Homo sapiens, UniProt P31645); assay: Human serotonin (hSERT) receptor binding, [125I]-RTI-55; conditions: membranes of HEK-293 cells transfected with human serotonin transporter cDNA, IC50 converted by Cheng-Prusoff
Description: (§1) Cell pastes of HEK-293 cells transfected with a human serotonin transporter cDNA were prepared. The cell pastes were resuspended in 400 to 700 ml of Krebs-HEPES assay buffer (25 mM HEPES, 122 mM NaCl, 3 mM KCl, 1.2 mM MgSO4, 1.3 mM CaCl2, and 11 mM glucose, pH 7.4) with a Polytron homogenizer at Setting 7 for 30 seconds. Aliquots of membranes (˜2.5 mg/mL protein) were stored in liquid nitrogen until used.
Assays were set up in FlashPlates pre-coated with 0.1% polyethyleneimine (PEI) in a total volume of 250 μL containing: test compound (concentration 10^−5M to 10^−12M), cell membranes, and […] [^125I]-RTI-55 (Perkin Elmer, NEX-272; specific activity 2200 Ci/mmol). The reaction was incubated and gently agitated for 90 minutes at room temperature, and terminated by removal of assay volume. Plates were covered, and bound [^125I]-RTI-55 was determined using a Wallac Trilux Beta Plate Counter. Test compounds were run in duplicate, and specific binding was defined as the difference between binding in the presence and absence of 10 μM citalopram.
Excel and GraphPad Prism software were used for data calculation and analysis. IC50 values were converted to Ki values using the Cheng-Prusoff equation.

[2] = target: human norepinephrine transporter (Homo sapiens, UniProt P23975); assay: Human norepinephrine (hNET) receptor binding, [125I]-RTI-55; conditions: membranes of HEK-293 cells transfected with human norepinephrine transporter cDNA; 50 pM [125I]-RTI-55; IC50 converted by Cheng-Prusoff
Description: as §1, with “human embryonic kidney 293 (HEK-293)” for “HEK-293”, “norepinephrine” for “serotonin”, “mL” for “ml”, “Krebs-N-2-hydroxyethylpiperazine-N′-2-ethanesulfonic acid (HEPES)” for “Krebs-HEPES”, “setting” for “Setting”, “(5” for “(˜2.5”
The binding assay was set up in Beckman deep-well polypropylene plates with a total volume of 250 μL containing: test compound (concentration of 10^−5M to 10^−12M), cell membranes, and 50 pM [^125I]-RTI-55 ([^125I]-3 beta-(4-iodophenyl)tropan-2 beta-carboxylic acid methyl ester) (Perkin Elmer, NEX-272; specific activity 2200 Ci/mmol). The reaction was incubated by gentle agitation for 90 minutes at room temperature and was terminated by filtration through Whatman GF/C filter plates using a Brandel 96-well plate harvester. Scintillation fluid (100 μL) was added to each well, and bound [^125I]-RTI-55 was determined using a Wallac Trilux Beta Plate Counter. Test compounds were run in duplicate, and specific binding was defined as the difference between binding in the presence and absence of 10 μM desipramine.
Excel and GraphPad Prism software were used for data calculation and analysis. IC50 values were converted to Ki values using the Cheng-Prusoff equation. The Ki values (nM) for the hNET are reported below in Table 13.

human serotonin transporter, sequence (P31645 whole entry): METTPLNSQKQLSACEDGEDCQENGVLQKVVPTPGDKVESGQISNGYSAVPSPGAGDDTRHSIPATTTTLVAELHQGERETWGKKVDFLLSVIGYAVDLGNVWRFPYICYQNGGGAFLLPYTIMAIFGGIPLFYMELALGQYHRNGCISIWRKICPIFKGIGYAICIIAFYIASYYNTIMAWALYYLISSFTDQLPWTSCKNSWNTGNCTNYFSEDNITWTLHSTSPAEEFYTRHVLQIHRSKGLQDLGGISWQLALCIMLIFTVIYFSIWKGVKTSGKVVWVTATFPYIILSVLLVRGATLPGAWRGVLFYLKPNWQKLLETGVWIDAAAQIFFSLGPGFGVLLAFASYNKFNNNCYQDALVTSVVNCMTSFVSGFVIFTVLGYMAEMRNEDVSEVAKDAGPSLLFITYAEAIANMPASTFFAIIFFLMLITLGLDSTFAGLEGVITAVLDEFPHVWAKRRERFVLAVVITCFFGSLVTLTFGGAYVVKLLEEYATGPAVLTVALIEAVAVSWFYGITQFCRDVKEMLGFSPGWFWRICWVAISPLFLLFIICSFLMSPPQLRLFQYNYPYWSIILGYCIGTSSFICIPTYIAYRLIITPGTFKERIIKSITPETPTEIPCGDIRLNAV
human norepinephrine transporter, sequence (P23975 whole entry): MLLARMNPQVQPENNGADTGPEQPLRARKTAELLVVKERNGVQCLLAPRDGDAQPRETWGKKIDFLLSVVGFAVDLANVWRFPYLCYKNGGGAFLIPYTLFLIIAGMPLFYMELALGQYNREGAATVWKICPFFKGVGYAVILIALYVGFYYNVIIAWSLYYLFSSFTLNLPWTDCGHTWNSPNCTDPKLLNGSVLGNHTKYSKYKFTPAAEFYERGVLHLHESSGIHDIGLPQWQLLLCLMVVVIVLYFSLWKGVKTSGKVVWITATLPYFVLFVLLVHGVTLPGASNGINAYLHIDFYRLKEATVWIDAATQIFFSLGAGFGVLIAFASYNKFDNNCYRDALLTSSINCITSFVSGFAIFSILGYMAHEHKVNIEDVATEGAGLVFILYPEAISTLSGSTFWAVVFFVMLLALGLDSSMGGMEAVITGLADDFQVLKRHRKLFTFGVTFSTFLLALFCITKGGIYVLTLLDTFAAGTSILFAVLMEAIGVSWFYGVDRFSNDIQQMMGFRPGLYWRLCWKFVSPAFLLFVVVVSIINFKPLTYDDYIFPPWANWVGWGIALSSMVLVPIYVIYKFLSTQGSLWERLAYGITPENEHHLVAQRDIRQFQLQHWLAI

SMILES	melting point	Ki [1] [µM]	Ki [2] [µM]
Fc1ccc(Oc2ncccc2OC[C@@H]2CCCNC2)cc1.O=C(O)/C=C/C(=O)O [Example 56, (R)-2-(4-fluoro-phenoxy)-3-(piperidin-3-ylmethoxy)-pyridine fumaric acid]	172 to 173 °C	–	–
O=C(O)/C=C/C(=O)O.c1ccc(Oc2ncccc2OC[C@@H]2CCCNC2)cc1 [Example 94, (R)-2-phenoxy-3-(piperidin-3-ylmethoxy)-pyridine fumaric acid]	141 to 143 °C (dec.)	4.7	0.41
Fc1cc(Oc2ncccc2OC[C@H]2CCCNC2)ccc1Cl.O=C(O)/C=C/C(=O)O [Example 69, (S)-2-(4-chloro-3-fluoro-phenoxy)-3-(piperidin-3-ylmethoxy)-pyridine fumaric acid]	150 to 151 °C	5.5	0.004
Fc1ccc(Oc2ncccc2OC(c2ccccc2)C2CCCNC2)cc1 (single isomer, unassigned; stereoisomer b) (as salt: fumaric acid salt) [Example 89, 2-(4-fluoro-phenoxy)-3-[((R or S)-phenyl)-((S)-piperidin-3-yl)-methoxy]-pyridine fumaric acid, stereoisomer B]	150 to 152 °C	–	–
CCOc1ncccc1OC(c1ccccc1)C1CCCNC1 (single isomer, unassigned; stereoisomer a) (as salt: fumaric acid salt) [Example 90, 2-ethoxy-3-[((R or S)-phenyl)-((S)-piperidin-3-yl)-methoxy]-pyridine fumaric acid, stereoisomer A]	159 to 161 °C	–	–
Fc1ccc(Oc2ncccc2OC(c2ccccc2)C2CCCNC2)cc1 (single isomer, unassigned; stereoisomer a) (as salt: fumaric acid salt) (hydrate or solvate) [Example 88, 2-(4-fluoro-phenoxy)-3-[((R or S)-phenyl)-((S)-piperidin-3-yl)-methoxy]-pyridine fumaric acid, stereoisomer A]	191 to 192 °C	–	–
Cc1ccc(OC[C@H]2CCCNC2)c(Oc2ccc(F)cc2)n1 [Example 41, (S)-2-(4-fluoro-phenoxy)-6-methyl-3-(piperidin-3-ylmethoxy)-pyridine fumaric acid]	–	0.21	0.0038
Cc1ccc(OC[C@H]2CCCNC2)c(Oc2ccc(Cl)c(Cl)c2)n1 [Example 17, (S)-2-(3,4-dichloro-phenoxy)-6-methyl-3-(piperidin-3-ylmethoxy)-pyridine fumaric acid]	–	0.063	0.012
COc1cccc(F)c1Oc1cc(Cl)ccc1OC[C@H]1CCCNC1 [Example 40, (S)-3-[4-chloro-2-(2-fluoro-6-methoxy-phenoxy)-phenoxymethyl]-piperidine fumaric acid]	–	0.014	0.0075
Cc1ccc(OC[C@H]2CCCNC2)c(Oc2c(F)ccc(Cl)c2F)n1 [Example 50, (S)-2-(3-chloro-2,6-difluoro-phenoxy)-6-methyl-3-(piperidin-3-ylmethoxy)-pyridine hydrochloride]	–	0.0603	0.0055
Clc1ccc(Oc2ncccc2OC[C@H]2CCCNC2)cc1 [Example 55, (S)-2-(4-chloro-phenoxy)-3-(piperidin-3-ylmethoxy)-pyridine fumaric acid]	–	> 10	0.017
CCOc1ncccc1OC(c1ccccc1)C1CCCNC1 (single isomer, unassigned; stereoisomer b) (as salt: fumaric acid salt) [Example 91, 2-ethoxy-3-[((R or S)-phenyl)-((S)-piperidin-3-yl)-methoxy]-pyridine fumaric acid, stereoisomer B]	58 to 68 °C (dec.)	–	–
C[C@H](Oc1ccccc1OCc1ccccc1)[C@H]1CCCNC1 [Example 108, (S)-3-[(S)-1-(2-benzyloxy-phenoxy)-ethyl]-piperidine oxalic acid]	–	0.73	0.003
Cc1ccc(OC[C@H]2CCCNC2)c(Oc2c(Cl)cccc2Cl)n1 [Example 47, (S)-2-(2,6-dichloro-phenoxy)-6-methyl-3-(piperidin-3-ylmethoxy)-pyridine hydrochloride]	–	> 9.2	0.0104
COc1cc(F)ccc1Oc1cc(C(F)(F)F)ccc1OC[C@H]1CCCNC1 [Example 37, (S)-3-[2-(4-fluoro-2-methoxy-phenoxy)-4-trifluoromethyl-phenoxymethyl]-piperidine fumaric acid]	–	0.022	0.077
N#Cc1ccc(Oc2ncccc2OC[C@H]2CCCNC2)cc1F [Example 61, (S)-2-fluoro-4-[3-(piperidin-3-ylmethoxy)-pyridin-2-yloxy]-benzonitrile fumaric acid]	–	> 10	0.14
COc1cc(Cl)ccc1Oc1cc(F)ccc1OC[C@H]1CCCNC1 [Example 36, (S)-3-[2-(4-chloro-2-methoxy-phenoxy)-4-fluoro-phenoxymethyl]-piperidine fumaric acid]	–	0.11	0.83
Cc1ccc(OC[C@H]2CCCNC2)c(Oc2ccc(Cl)cc2Cl)n1 [Example 22, (S)-2-(2,4-dichloro-phenoxy)-6-methyl-3-(piperidin-3-ylmethoxy)-pyridine fumaric acid]	–	0.079	0.0047
COc1cccc(Oc2nc(C)ccc2OC[C@H]2CCCNC2)c1OC [Example 9, (S)-2-(2,3-dimethoxy-phenoxy)-6-methyl-3-(piperidin-3-ylmethoxy)-pyridine fumaric acid]	–	≥ 10	3.2
CCOc1ncccc1O[C@@H](CC)[C@H]1CCCNC1 [Example 86, (S,S)-2-ethoxy-3-(1-piperidin-3-yl-propoxy)-pyridine fumaric acid]	–	0.705	0.013
Cc1ccc(OC[C@H]2CCCNC2)c(Oc2cccc(C(F)(F)F)c2)n1 [Example 27, (S)-6-methyl-2-(3-trifluoromethy-phenoxy)-3-(piperidin-3-ylmethoxy)-pyridine fumaric acid]	–	0.56	0.31
COc1cccc(F)c1OC[C@H]1CCCNC1 [Example 103, (S)-3-(2-fluoro-6-methoxy-phenoxymethyl)-piperidine fumaric acid]	–	1.2	0.045
Cc1ccc(OC[C@H]2CCCNC2)c(Oc2ccc(Cl)cc2)n1 [Example 13, (S)-2-(4-chloro-phenoxy)-6-methyl-3-(piperidin-3-ylmethoxy)-pyridine fumaric acid]	–	0.14	0.0089
CCOc1ccccc1OC(c1ccccc1)[C@H]1CCCNC1 (mixture of isomers) (as salt: fumaric acid salt) (hydrate or solvate) [Example 106, (S)-3-[(2-ethoxy-phenoxy)-(R,S)-phenyl-methyl]-piperidine fumaric acid]	82 to 88 °C (dec.)	–	–
Cc1ccc(OC[C@H]2CCCNC2)c(Oc2cccc3c2CCCC3)n1 [Example 19, (S)-6-methyl-3-(piperidin-3-ylmethoxy)-2-(5,6,7,8-tetrahydronaphthalen-1-yloxy)-pyridine fumaric acid]	–	1.9	0.086
COc1cc(F)ccc1Oc1nc(C)ccc1OC[C@H]1CCCNC1 [Example 28, (S)-2-(4-fluoro-2-methoxy-phenoxy)-6-methyl-3-(piperidin-3-ylmethoxy)-pyridine fumaric acid]	–	0.3	0.0061
Cc1ccc(OC[C@H]2CCCNC2)c(Oc2c(F)ccc(F)c2F)n1 [Example 49, (S)-6-methyl-3-(piperidin-3-ylmethoxy)-2-(2,3,6-trifluoro-phenoxy)-pyridine hydrochloride]	–	0.025	0.0061
CCOc1ncccc1OC(c1ccccc1)C1CCCNC1 (single isomer, unassigned; stereoisomer b) [Example 91, 2-ethoxy-3-[((R or S)-phenyl)-((S)-piperidin-3-yl)-methoxy]-pyridine fumaric acid, stereoisomer B]	–	0.43	0.099
